Laboratory results: patent publication US20190077795A1, “ARGININE […] INHIBITORS AND USES THEREOF” (Epizyme, Inc., priority 2014, published 2019)
Where two headings read alike, the source gives them in different places.

How the values were obtained:
[1] = target: human PRMT8 (Homo sapiens, UniProt Q9NR22); test: PRMT8 Biochemical Assay; details: PRMT8 IC50 (uM), peptide substrate, 3H-SAM Flashplate assay
Text: S-adenosylmethionine (SAM), S-adenosylhomocysteine (SAH), bicine, Tween20, dimethylsulfoxide (DMSO), bovine skin gelatin (BSG), isopropyl-3-D-thiogalactopyranoside (IPTG), and Tris(2-carboxyethyl)phosphine hydrochloride solution (TCEP) were purchased from Sigma-Aldrich at the highest level of purity possible. ^3H-SAM was purchase from American Radiolabeled Chemicals with a specific activity of 80 Ci/mmol. 384-well streptavidin Flashplates were purchased from PerkinElmer.
E. coli (BL21(DE3) Gold, Stratagene) made competent by the CaCl2 method were transformed with the PRMT8 construct and ampicillin selection. Protein over-expression was accomplished by growing the PRMT8 expressing E. coli clone and inducing expression with 0.3 mM IPTG at 16° C. The culture was grown for 12 hours, harvested by centrifugation, and stored at −80° C. for purification.
GST-tagged PRMT8 was eluted with 50 mM Tris, 2 mM glutathione, pH 7.8. Pooled fractions were cleaved by thrombin (10U) and dialysed in buffer A. GST was removed by reloading the cleaved protein sample onto glutathione sepharose column and PRMT8 was collected in the flow-through fractions. PRMT8 was purified further by ceramic hydroxyapatite chromatography. The column was washed with 50 mM phosphate buffer, 100 mM NaCl, 5% glycerol, 5 mM β-mercaptoethanol, pH 7.8 and PRMT8 was eluted by 100 mM phosphate in the same buffer. Protein was concentrated and buffer was exchanged to 50 mM Tris, 300 mM NaCl, 10% glycerol, 5 mM β-mercaptoethanol, pH 7.8 by ultrafiltration.
General Procedure for PRMT8 Enzyme Assays on Peptide Substrates.
The assays were all performed in a buffer consisting of 20 mM Bicine (pH=7.6), 1 mM TCEP, 0.005% BSG, and 0.002% Tween 20, prepared on the day of use. […] DMSO (1 ul) was added to Columns 11, 12, 23, 24, rows A-H for the maximum signal control and 1 ul of SAH, a known product and inhibitor of PRMT8, was added to columns 11, 12, 23, 24, rows I-P for the minimum signal control. A cocktail (40 ul) containing the PRMT8 enzyme was added by Multidrop Combi (Thermo-Fisher). The compounds were allowed to incubate with PRMT8 for 30 min at room temperature, then a cocktail (10 ul) containing ^3H-SAM and peptide was added to initiate the reaction (final volume=51 ul). […] The assays were stopped by the addition of non-radiolabeled SAM (10 ul) to a final concentration of 400 uM, which dilutes the ^3H-SAM to a level where its incorporation into the peptide substrate is no longer detectable. 50 ul of the reaction in the 384-well polypropylene plate was then transferred to a 384-well Flashplate and the biotinylated peptides were allowed to bind to the streptavidin surface for at least 1 hour before being washed once with 0.1% Tween20 in a Biotek ELx405 plate washer. The plates were then read in a PerkinElmer TopCount plate reader to measure the quantity of ^3H-labeled peptide bound to the Flashplate surface, measured as disintegrations per minute (dpm) or alternatively, referred to as counts per minute (cpm).
Where dpm=disintegrations per minute, cmpd=signal in assay well, and min and max are the respective minimum and maximum signal controls.
Where top and bottom are the normally allowed to float, but may be fixed at 100 or 0 respectively in a 3-parameter fit. The Hill Coefficient normally allowed to float but may also be fixed at 1 in a 3-parameter fit. Y is the % inhibition and X is the compound concentration.

[2] = target: T1, human PRMT1 (Homo sapiens, UniProt Q99873); test: PRMT1 Biochemical Assay; details: peptide substrate, 3H-SAM Flashplate assay; read-out: PRMT1 IC50
T1 construct: GST-tagged PRMT1; made in house; host or cells: High Five insect cells (baculovirus, pFastBac1)
How it was run: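 GST-tagged PRMT1 from baculovirus-infected cells, preincubated with compounds 30 min at room temperature in 20 mM Bicine pH 7.6, 1 mM TCEP, 0.005% BSG, 0.002% Tween 20. Reaction started with ³H-SAM plus biotinylated peptide, stopped with 300 µM cold SAM.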

[3] = target: T2, human PRMT6 (Homo sapiens, UniProt Q96LA8); test: PRMT6 Biochemical Assay
T2 construct: Flag-PRMT6-His; made in house; host or cells: HEK 293F cells (BacMam baculovirus, pFastBacMam)

[4] = system: mono-methyl arginine in RKO cells; test: RKO Methylation Assay, In Cell Western (ICW); assay type: cell-based; details: 72 hours
[5] = peptide substrate, 3H-SAM Flashplate assay, read-out: PRMT6 IC50

T1 sequence (Q99873 with tags, fused parts or gaps): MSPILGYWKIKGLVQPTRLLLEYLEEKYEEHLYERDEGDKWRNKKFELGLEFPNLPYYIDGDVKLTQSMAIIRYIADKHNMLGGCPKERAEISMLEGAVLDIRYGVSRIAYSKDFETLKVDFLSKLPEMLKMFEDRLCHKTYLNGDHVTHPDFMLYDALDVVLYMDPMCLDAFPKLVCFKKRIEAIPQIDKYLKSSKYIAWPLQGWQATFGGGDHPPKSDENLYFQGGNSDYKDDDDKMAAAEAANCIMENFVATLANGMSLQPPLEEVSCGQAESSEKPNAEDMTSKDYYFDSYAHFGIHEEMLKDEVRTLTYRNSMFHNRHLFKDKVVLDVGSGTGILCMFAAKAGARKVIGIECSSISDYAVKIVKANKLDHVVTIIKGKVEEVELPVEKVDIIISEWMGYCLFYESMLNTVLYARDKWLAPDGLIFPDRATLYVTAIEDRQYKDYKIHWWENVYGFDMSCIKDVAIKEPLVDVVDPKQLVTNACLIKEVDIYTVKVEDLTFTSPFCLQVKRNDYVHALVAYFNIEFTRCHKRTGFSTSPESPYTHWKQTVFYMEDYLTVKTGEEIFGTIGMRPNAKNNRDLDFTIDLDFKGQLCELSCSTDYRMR
human PRMT8, sequence (Q9NR22 whole entry): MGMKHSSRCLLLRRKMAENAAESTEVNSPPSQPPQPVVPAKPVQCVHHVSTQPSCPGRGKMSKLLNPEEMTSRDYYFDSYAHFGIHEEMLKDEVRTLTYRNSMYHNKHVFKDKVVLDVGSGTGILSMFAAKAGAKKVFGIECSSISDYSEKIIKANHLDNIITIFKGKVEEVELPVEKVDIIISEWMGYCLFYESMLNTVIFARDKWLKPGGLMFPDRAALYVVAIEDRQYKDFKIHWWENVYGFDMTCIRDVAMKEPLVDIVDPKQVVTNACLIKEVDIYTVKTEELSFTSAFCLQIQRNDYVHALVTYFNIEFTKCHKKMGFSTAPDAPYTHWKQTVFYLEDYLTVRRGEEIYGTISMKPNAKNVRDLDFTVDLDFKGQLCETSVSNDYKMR
T2 sequence (Q96LA8 with tags, fused parts or gaps): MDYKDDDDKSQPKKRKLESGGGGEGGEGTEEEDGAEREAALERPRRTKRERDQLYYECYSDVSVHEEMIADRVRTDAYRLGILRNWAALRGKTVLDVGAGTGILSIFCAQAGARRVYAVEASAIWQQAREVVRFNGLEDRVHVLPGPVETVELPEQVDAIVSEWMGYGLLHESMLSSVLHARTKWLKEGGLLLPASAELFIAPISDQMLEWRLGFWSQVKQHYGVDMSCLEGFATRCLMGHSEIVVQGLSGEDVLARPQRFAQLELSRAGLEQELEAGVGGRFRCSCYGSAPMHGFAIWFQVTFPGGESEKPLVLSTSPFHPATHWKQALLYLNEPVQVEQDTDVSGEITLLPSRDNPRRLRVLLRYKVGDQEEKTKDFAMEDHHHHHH

SMILES	IC50 [1]	IC50 [2]	IC50 [3, 5]	ICW EC30 [4]	IC50 ([3]; PRMT6 IC50 (uM))
CNCCN(C)Cc1c[nH]nc1-c1ccc(OCCOc2ccc(Oc3ccccc3)cc2)cc1 [Compound 6]	0.0192 µM	4.79 nM	0.00343 µM	328.2 nM	–
CNCCN(C)Cc1c[nH]nc1-c1ccc(N(C)CCOc2cccc(OC)c2)cc1 [Compound 57]	0.042 µM	11.8 nM	0.00902 µM	757.7 nM	–
CNCCN(C)Cc1c[nH]nc1-c1ccc(N(CCCN2CCOCC2)CC(C)C)nc1 [Compound 69]	0.0312 µM	14.9 nM	2.54 µM	1337 nM	–
CCC(CC)Oc1ccc(-n2ncc(C)c2CN(C)CCNC)cc1 [Compound 114]	0.0836 µM	38.1 nM	0.59 µM	1855 nM	–
CNCCN(C)Cc1c[nH]nc1-c1ccc(OCCOc2ccc(OCC(C)C)cc2)cc1 [Compound 40]	0.0247 µM	8.34 nM	0.00739 µM	505.1 nM	–
CNCCN(C)Cc1c[nH]nc1-c1ccc(S(C)(=O)=O)cc1 [Compound 92]	0.043 µM	24.7 nM	0.0309 µM	2126 nM	–
CNCCN(C)Cc1c[nH]nc1-c1cc(OC2CCOCC2)cc(C(F)(F)F)c1 [Compound 123]	0.376 µM	43.9 nM	1.47 µM	18364 nM	–
CNCCN(C)Cc1c[nH]nc1-c1cc(OC)c(CC(C)C)c(OC)c1 [Compound 108]	0.0712 µM	35.7 nM	–	2967 nM	0.824 µM
CNCCN(C)Cc1c[nH]nc1-c1ccc(OCCOc2ccc(C3CCOCC3)cc2)cc1 [Compound 11]	0.0133 µM	5.23 nM	0.00403 µM	113.8 nM	–
CNCCN(C)Cc1c[nH]nc1-c1ccc(OC(COc2ccccc2)COc2ccccc2)cc1 [Compound 146]	0.0375 µM	7.32 nM	0.00624 µM	1403 nM	–
CNCCN(C)Cc1c[nH]nc1-c1cnc(OCCCOC)c(C(F)(F)F)c1 [Compound 82]	0.189 µM	20.3 nM	0.0777 µM	4060 nM	–
CNCCN(C)Cc1c[nH]nc1-c1ccc(OCCOc2ccc(C)cc2)cc1 [Compound 42]	0.0514 µM	8.9 nM	0.00498 µM	185 nM	–
CNCCN(C)Cc1c[nH]nc1-c1ccc(OCCOc2cccc(OCCC(O)CO)c2)cc1 (stereo not shown) [Compound 31]	0.02 µM	7.08 nM	0.00432 µM	2325.4 nM	–
CCC(CC)Oc1ccc(-n2nc(C)cc2CN(C)CCNC)cc1 [Compound 65]	0.0299 µM	14.1 nM	–	215.6 nM	0.136 µM
CCC(CC)Oc1ccc(-n2nccc2CN(C)CCNC)cc1 [Compound 18]	0.0153 µM	5.86 nM	–	91.46 nM	0.0678 µM
CNCCN(C)Cc1c[nH]nc1-c1ccc(OCCCS(C)(=O)=O)cc1 [Compound 128]	0.131 µM	46.4 nM	0.0343 µM	13334 nM	–
CCCOCCOc1cc(-c2n[nH]cc2CN(C)CCNC)cc(C(F)(F)F)c1 [Compound 60]	0.0525 µM	12.7 nM	1.2 µM	1263 nM	–
CNCCN(C)Cc1c[nH]nc1-c1ccc(OC2CC(OCCC(O)CO)C2)cc1 (stereo not shown) [Compound 149]	0.342 µM	172 nM	0.0286 µM	>20000 nM	–
CNCCN(C)Cc1c[nH]nc1-c1ccc(OCCOc2ccc(OC)cc2)cc1 [Compound 135]	0.0336 µM	5.85 nM	0.00405 µM	86 nM	–
CNCCN(C)Cc1c[nH]nc1-c1cc(F)c(OC2COC2)c(C(F)(F)F)c1 [Compound 23]	0.0608 µM	6.47 nM	0.0169 µM	1296 nM	–
CNCCN(C)Cc1c[nH]nc1-c1ccc(OCCOc2ccc(OCc3ccccc3)cc2)cc1 [Compound 9]	0.024 µM	5.12 nM	0.00222 µM	329.1 nM	–
CN(CCN)Cc1c[nH]nc1-c1cc(F)c(Cl)c(C(F)(F)F)c1 [Compound 30]	0.0608 µM	7.05 nM	0.0135 µM	648 nM	–
CNCCN(C)Cc1c[nH]nc1-c1ccc(OCCOc2ccc(CO)cc2)cc1 [Compound 16]	0.0206 µM	5.8 nM	0.0037 µM	276.3 nM	–
CNCCN(C)Cc1c[nH]nc1-c1cc(OCC2CCOC2)cc(C(F)(F)F)c1 (stereo not shown) [Compound 104]	0.226 µM	33.3 nM	–	1467 nM	2.9 µM
CNCCN(C)Cc1c[nH]nc1-c1ccc(OCCOc2ccc(Oc3ccc(OCCOC)cc3)cc2)cc1 [Compound 15]	0.0193 µM	5.79 nM	0.00238 µM	220.1 nM	–
CNCCN(C)Cc1c[nH]nc1-c1cc(OC2CCOC2)cc(C(F)(F)F)c1 (stereo not shown) [Compound 84]	0.228 µM	20.7 nM	0.707 µM	4957 nM	–
CNCCN(C)Cc1c[nH]nc1-c1ccc(OCC2COC2)cc1 [Compound 91]	0.282 µM	24.7 nM	0.0322 µM	3058 nM	–
CNCCN(C)Cc1c[nH]nc1-c1ccc(OC2CCC(OCCOC)CC2)cc1 (stereo not shown) [Compound 98]	0.113 µM	28.5 nM	0.0289 µM	868.5 nM	–
